Results taken from US11040038B2, “Methods for treating diseases associated with abnormal ACVR1 expression and ACVR1 inhibitors for use in the same” (Sumitomo Dainippon Pharma Oncology, Inc., priority 2018, dated 2021).
Numbering of substitutions follows the chain as printed.

Key:
ACVR1 R206H = molecular target: T1, ACVR1 R206H (Homo sapiens, UniProt Q04771, R206H); assay: ACVR1 kinase assay, casein substrate, 33P-ATP, filter binding; type: biochemical; details: 10 μM ATP
T1 sequence (Q04771 21-509 R206H): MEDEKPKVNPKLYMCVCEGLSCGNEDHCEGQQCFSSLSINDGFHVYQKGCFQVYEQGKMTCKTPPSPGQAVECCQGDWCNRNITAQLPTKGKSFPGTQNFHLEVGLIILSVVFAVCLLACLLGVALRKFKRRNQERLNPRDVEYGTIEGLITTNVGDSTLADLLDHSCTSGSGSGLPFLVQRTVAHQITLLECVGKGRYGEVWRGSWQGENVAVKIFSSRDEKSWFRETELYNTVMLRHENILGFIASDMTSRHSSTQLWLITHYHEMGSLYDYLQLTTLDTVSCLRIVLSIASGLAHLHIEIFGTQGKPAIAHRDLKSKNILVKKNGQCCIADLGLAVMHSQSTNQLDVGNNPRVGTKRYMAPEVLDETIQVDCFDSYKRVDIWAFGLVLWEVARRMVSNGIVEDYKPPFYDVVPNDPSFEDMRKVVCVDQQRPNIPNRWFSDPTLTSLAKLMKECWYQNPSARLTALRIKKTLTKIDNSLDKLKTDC
Experimental: (§1) In brief, casein-based substrates were prepared. The respective ACVR1 kinase was added to the substrate mixture and hot/cold 33P-ATP (10 μM) was added to initiate the reaction. The activity was then measured with a filter binding method.
(§2) The IC50 values against the kinases are listed below in Table 3.

ACVR1 Wild Type = molecular target: T2, ACVR1 Wild Type (Homo sapiens, UniProt Q04771); assay: as above; type: biochemical; details: 10 μM ATP
T2 sequence (Q04771 21-509): T1 sequence (Q04771 21-509 R206H) with H186R
Experimental: as §1, §2

ACVR1 G328V = molecular target: T3, ACVR1 G328V (Homo sapiens, UniProt Q04771, G328V); assay: as above; type: biochemical; details: 10 μM ATP
T3 sequence (Q04771 21-509 G328V): T1 sequence (Q04771 21-509 R206H) with H186R, G308V
Experimental: as §1, §2

[1] = IV and PO plasma pharmacokinetics in rats; type: in vivo; details: Sprague-Dawley, rat, fasted female SD rats
Experimental: Pharmacokinetic and toxicology of Compound 2 were tested in rats. The intravenous (IV) and oral (PO) pharmacokinetics of Compound 2 were determined in plasma in fasted female Sprague-Dawley (SD) rats. The formulation used was 20% solutol and 80% saline for both administration routes. The nominal dose was 2 mg/kg (IV) and 20 mg/kg (PO). Samples were taken at 8 time points and the drug concentrations were determined by LC-MS/MS.

[2] = tested on: hepcidin expression in HepG2 cells; assay: Inhibition of hepcidin expression in HepG2 cells (qPCR); type: cell-based; details: Homo sapiens
Experimental: To evaluate the in vitro efficacy of Compound 2, HepG2 cells were stimulated with the ALK2 ligand BMP-2 in the presence or absence of various concentrations of Compound 2 and the resulting levels of hepcidin expression were measured by qPCR. The results shown in FIG. 2A, reveal a strong, dose responsive inhibition of hepcidin transcription by Compound 2 (EC50<1 nM). Effects on basal hepcidin transcription were also measured (in the absence of BMP-2 stimulation) and the results are shown in FIG. 2B. Under these experimental conditions, Compound 2 inhibited hepcidin expression in a dose responsive manner (IC50˜100 nM).

[3] = Comparison of concentration in plasma and brain tissue; type: in vivo, mice; details: 20 mg/kg
Text: Additionally, a comparison of Compound 2 concentration in the plasma and brain tissue was made, the results of which are in FIG. 4B and Table 6.

[4] = tested on: SMAD1/5 phosphorylation in BMP2 stimulated HepG2 cells; assay: Inhibition of SMAD1/5 phosphorylation in BMP2 stimulated HepG2 cells; type: cell-based; details: Homo sapiens; HepG2 cells stimulated with BMP2
Text: SMAD proteins are transcription factors involved in signaling downstream of TGFβ receptors. The TGFβ receptor ALK2 phosphorylates SMADs when activated by bone morphogenic proteins such as BMP2, which leads to SMAD nuclear translocation, transcriptional initiation and increased expression of genes like HAMP which codes for the peptide hormone hepcidin. Therefore, compounds that target ALK2 should inhibit BMP induced SMAD phosphorylation. In order to evaluate the in vitro potency of Compound 2, HepG2 cells were stimulated with the ALK2 ligand BMP2 in the presence or absence of various concentrations of Compound 2.

IC50 (ACVR1 R206H): 3.8 nM
IC50 (ACVR1 Wild Type): 4.5 nM
IC50 (ACVR1 G328V): 13.8 nM
AUC ([1]; 20 mg/kg PO): 2520 ng·h/mL
Cmax ([1]; 20 mg/kg PO): 159 ng/mL
Tmax ([1]; 20 mg/kg PO): 5.33 h
half-life ([1]; 20 mg/kg PO): 6.58 h
bioavailability ([1]; 20 mg/kg PO vs 2 mg/kg IV, read-out: Oral Bioavailability (% F)): 60.8%
EC50 ([2]; BMP-2 stimulation, qPCR, read-out: EC50, inhibition of hepcidin transcription): < 1 nM
IC50 ([2]; absence of BMP-2 stimulation, read-out: IC50, inhibition of basal hepcidin expression): ~100 nM
Cmax ([3]; CD-1, mouse, po, brain): 1690 ng/g
Cmax ([3]; CD-1, mouse, po, plasma): 378 ng/mL
AUC ([3]; CD-1, mouse, po, plasma, read-out: AUC): 2340 ng·h/mL
AUC ([3]; brain): 7,765 ng/g · hr
EC50 [4]: 162 nM
SMILES: COc1cc(Nc2nccc(Nc3cccnc3-c3ccccn3)n2)ccc1N1CCN(C)CC1 [Compound 2, N^4-(2,2′-bipyridin-3-yl)-N^2-(3-methoxy-4-(4-methylpiperazin-1-yl)phenyl)pyrimidine-2,4-diamine]
